The supplement of paper PMC10307832

Columns and labels:
Experiment in all cases: relative viability (nuclei count vs DMSO), 5 days (fraction); higher = more cells survive
CAP-232 = compound: C[C@H]([C@@H](C(=O)N)NC(=O)[C@@H]1CSSC[C@@H](C(=O)N[C@H](C(=O)N[C@@H](C(=O)N[C@H](C(=O)N1)CCCCN)CC2=CNC3=CC=CC=C32)CC4=CC=C(C=C4)O)NC(=O)[C@@H](CC5=CC=CC=C5)N)O [CAP-232]
Procedure, shortened: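 Following overnight incubation at 37 °C, lung cancer cell lines in 1536-well plates were pinned with five library-drug doses (not always all listed) in √10 steps on vehicle-anchored plates. The cells then spent 5 days without medium change before a combined fix, permeabilisation and Hoechst stain, 4× imaging and MetaXpress nuclear counts. Viability is the treated-to-vehicle ratio of nuclei, taken as the median across plates. Only plates with control CV below 25% and at least one doubling passed.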

CAP-232 + Crizotinib = compound: C[C@H]([C@@H](C(=O)N)NC(=O)[C@@H]1CSSC[C@@H](C(=O)N[C@H](C(=O)N[C@@H](C(=O)N[C@H](C(=O)N1)CCCCN)CC2=CNC3=CC=CC=C32)CC4=CC=C(C=C4)O)NC(=O)[C@@H](CC5=CC=CC=C5)N)O [CAP-232] + C[C@@H](Oc1cc(-c2cnn(C3CCNCC3)c2)cnc1N)c1c(Cl)ccc(F)c1Cl [Crizotinib] (partner 1 µM)
Procedure, shortened: (§1)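 Lung cancer cell lines were pin-tool dosed in 1536-well plates on the day after seeding, with either a lone drug or a fixed anchor-drug dose plus five library-drug doses (not always all listed) in √10 steps. Nuclei were counted on 4× images after 5 days. Relative viability is the ratio of treated-well to vehicle-well nuclei counts, with each value a median of duplicate plates.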

CAP-232 + Alpelisib = compound: C[C@H]([C@@H](C(=O)N)NC(=O)[C@@H]1CSSC[C@@H](C(=O)N[C@H](C(=O)N[C@@H](C(=O)N[C@H](C(=O)N1)CCCCN)CC2=CNC3=CC=CC=C32)CC4=CC=C(C=C4)O)NC(=O)[C@@H](CC5=CC=CC=C5)N)O [CAP-232] + Cc1nc(NC(=O)N2CCC[C@H]2C(N)=O)sc1-c1ccnc(C(C)(C)C(F)(F)F)c1 [Alpelisib] (partner 2 µM)
Procedure, shortened: as §1

CAP-232 + Dasatinib = compound: C[C@H]([C@@H](C(=O)N)NC(=O)[C@@H]1CSSC[C@@H](C(=O)N[C@H](C(=O)N[C@@H](C(=O)N[C@H](C(=O)N1)CCCCN)CC2=CNC3=CC=CC=C32)CC4=CC=C(C=C4)O)NC(=O)[C@@H](CC5=CC=CC=C5)N)O [CAP-232] + Cc1nc(Nc2ncc(C(=O)Nc3c(C)cccc3Cl)s2)cc(N2CCN(CCO)CC2)n1 [Dasatinib] (partner 0.075 µM)
Procedure, shortened: as §1

CAP-232 + Olaparib = compound: C[C@H]([C@@H](C(=O)N)NC(=O)[C@@H]1CSSC[C@@H](C(=O)N[C@H](C(=O)N[C@@H](C(=O)N[C@H](C(=O)N1)CCCCN)CC2=CNC3=CC=CC=C32)CC4=CC=C(C=C4)O)NC(=O)[C@@H](CC5=CC=CC=C5)N)O [CAP-232] + O=C(c1cc(Cc2n[nH]c(=O)c3ccccc23)ccc1F)N1CCN(C(=O)C2CC2)CC1 [Olaparib] (partner 8 µM)
Procedure, shortened: as §1

Cell Line | relative viability (CAP-232; 0.4 µM) | relative viability (CAP-232; 1.265 µM) | relative viability (CAP-232; 4 µM) | relative viability (CAP-232; 12.65 µM) | relative viability (CAP-232 + Crizotinib; first compound 0.4 µM) | relative viability (CAP-232 + Crizotinib; first compound 1.265 µM) | relative viability (CAP-232 + Crizotinib; first compound 4 µM) | relative viability (CAP-232 + Crizotinib; first compound 12.65 µM) | relative viability (CAP-232 + Alpelisib; first compound 0.4 µM) | relative viability (CAP-232 + Alpelisib; first compound 1.265 µM) | relative viability (CAP-232 + Alpelisib; first compound 4 µM) | relative viability (CAP-232 + Alpelisib; first compound 12.65 µM) | relative viability (CAP-232 + Dasatinib; first compound 0.4 µM) | relative viability (CAP-232 + Dasatinib; first compound 1.265 µM) | relative viability (CAP-232 + Dasatinib; first compound 4 µM) | relative viability (CAP-232 + Dasatinib; first compound 12.65 µM) | relative viability (CAP-232 + Olaparib; first compound 0.4 µM) | relative viability (CAP-232 + Olaparib; first compound 1.265 µM) | relative viability (CAP-232 + Olaparib; first compound 4 µM) | relative viability (CAP-232 + Olaparib; first compound 12.65 µM)
201T | 1.07 | 0.952 | 0.996 | 1.02 | 1.13 | 1.02 | 1.04 | 1.04 | 1.05 | 0.975 | 0.992 | 1.04 | 0.536 | 0.549 | 0.614 | 0.556 | 0.892 | 0.833 | 0.871 | 0.854
A549 | 0.999 | 0.895 | 1.14 | 0.597 | 0.86 | 0.734 | 0.871 | 0.251 | 0.659 | 0.653 | 0.734 | 0.348 | – | – | – | – | 0.211 | 0.292 | 0.396 | 0.326
A-427 | 1.01 | 0.953 | 0.931 | 0.86 | 0.881 | 0.913 | 0.908 | 0.93 | 1.08 | 1.04 | 1.06 | 1.08 | 0.646 | 0.467 | 0.679 | 0.76 | 0.813 | 0.646 | 0.808 | 0.814
ABC-1 | 0.968 | 0.789 | 0.957 | 0.603 | 1.01 | 1.17 | 1.08 | 0.903 | 1.05 | 1.15 | 1.24 | 0.504 | 0.582 | 0.562 | 0.53 | 0.448 | 0.778 | – | 0.665 | 0.368
BEN | 1.03 | 1.05 | 0.989 | 0.922 | 0.859 | 0.98 | 0.82 | 0.772 | 1.03 | 1.01 | 1.06 | 0.858 | 0.39 | 0.261 | 0.264 | 0.424 | 1.02 | 1.04 | 0.959 | 1.07
CAL-12T | 0.917 | 0.992 | 0.995 | 0.97 | 0.531 | 0.703 | 0.657 | 0.739 | 1.11 | 1.24 | 1.42 | 0.726 | 0.32 | 0.409 | 0.521 | 0.138 | 0.778 | 0.767 | 0.696 | 0.6
COR-L23 | 1.15 | 1.05 | 1.09 | 0.745 | 0.665 | 0.793 | 0.72 | 0.619 | 0.725 | 0.754 | 0.701 | 0.616 | 0.506 | 0.575 | 0.531 | 0.342 | 0.43 | 0.403 | 0.404 | 0.279
COR-L 105 | 1.05 | 0.816 | 0.992 | 0.573 | 0.863 | 0.808 | 0.804 | 0.581 | 1.09 | 0.917 | 1.16 | 0.594 | 0.337 | 0.352 | 0.273 | 0.249 | 0.733 | 0.61 | 0.712 | 0.571
ChaGo-K-1 | 1.1 | 0.99 | 1.05 | 1.04 | 1.22 | 1.17 | 1.41 | 0.833 | – | – | – | – | 0.666 | 0.611 | 0.614 | 0.506 | 0.425 | 0.428 | 0.456 | 0.421
EKVX | 1.07 | 0.968 | 1.04 | 0.885 | 0.899 | 1.1 | 1.03 | 0.651 | 0.806 | 0.969 | 0.833 | 0.715 | 0.457 | 0.605 | 0.499 | 0.509 | 0.901 | 0.95 | 0.993 | 0.804
EMC-BAC-2 | 1.19 | 0.941 | 0.995 | 0.866 | 0.794 | 0.753 | 0.764 | 0.709 | 0.78 | 0.718 | 0.743 | 0.623 | 0.36 | 0.31 | 0.353 | 0.28 | 0.52 | 0.47 | 0.469 | 0.398
EPLC-272H | 0.998 | 0.909 | 1.05 | 0.915 | 1.16 | 0.836 | 0.791 | 0.887 | 0.895 | 0.959 | 0.988 | 0.941 | 0.402 | 0.306 | 0.321 | 0.386 | – | 0.935 | 0.761 | 0.31
H3255 | 0.976 | 0.946 | 1.01 | 0.769 | 0.956 | 1.04 | 0.854 | 0.692 | 0.759 | 0.741 | 0.633 | 0.503 | 0.352 | 0.353 | 0.455 | 0.338 | 0.569 | 0.587 | 0.552 | 0.433
HARA | 1.12 | 0.984 | 1.03 | 0.902 | 1.16 | 1.05 | 0.936 | 0.998 | 0.791 | 0.847 | 0.876 | 0.58 | 0.266 | 0.256 | 0.305 | 0.27 | 0.823 | 0.784 | 0.865 | 0.609
